The subject of series [1] is Botryotinia fuckeliana (Botrytis cinerea). In words: Botryotinia fuckeliana (Botrytis cinerea)/Liquid Culture (Gray Mould). In kind it is cell-based. The following applies: 200 ppm, liquid culture, compared to untreated control, 3-4 days after application, read-out: control of Botryotinia fuckeliana.
Series [2] concerns Fusarium culmorum. Kind of series: microbe, parasite or virus in culture. The following applies: read-out: control of Fusarium culmorum. In kind it is cell-based.
Series [3] concerns Fusarium culmorum. In words: whole plant or invertebrate. In kind it is in vivo. To be noted: in Triticum aestivum, read-out: control of Fusarium culmorum.
Series [4] concerns Glomerella lagenarium (Colletotrichum lagenarium). Kind of series: Glomerella lagenarium (Colletotrichum lagenarium)/Liquid Culture (Anthracnose). In kind it is cell-based. The following applies: Colletotrichum orbiculare; 200 ppm; liquid culture, compared to untreated control, 3-4 days after application; read-out: control of Glomerella lagenarium.
The subject of another series is Gaeumannomyces graminis. Kind of series: Gaeumannomyces graminis/Liquid Culture (Take-all of Cereals). In kind it is cell-based. The following applies: 200 ppm, liquid culture, compared to untreated control, 4-5 days after application, read-out: control of Gaeumannomyces graminis.
Series [5] has as its system Monographella nivalis (Microdochium nivale). Kind of series: Monographella nivalis (Microdochium nivale)/Liquid Culture (Foot Rot Cereals). To be noted: 200 ppm, liquid culture, compared to untreated control, 4-5 days after application, read-out: control of Monographella nivalis. In kind it is cell-based.
In series [6] the test system is Magnaporthe grisea (Pyricularia oryzae). Kind of series: microbe, parasite or virus in culture. In kind it is cell-based. The following applies: read-out: control of Magnaporthe grisea.
Series [7] has the same test system. Kind of series: whole plant or invertebrate. In kind it is in vivo. To be noted: foliar, read-out: control of Magnaporthe grisea.
A further series relates to Sclerotinia sclerotiorum. In words: Sclerotinia sclerotiorum/Liquid Culture (Cottony Rot). The following applies: read-out: control of Sclerotinia sclerotiorum.

Molecules are shown by their SMILES.

Description for Sclerotinia sclerotiorum: Mycelia fragments of a newly grown liquid culture of the fungus are directly mixed into nutrient broth (Vogels broth). After placing a (DMSO) solution of test compound into a microtiter plate (96-well format) the nutrient broth containing the fungal material is added. The test plates are incubated at 24° C. and the inhibition of growth is determined photometrically 3-4 days after application.

Take `CC(C)C[C@@](C)(Cc1ccccc1)C(=O)Nc1cnc2c(F)cccc2c1` [Compound F-20, (2S)-2-benzyl-N-(8-fluoro-3-quinolyl)-2,4-dimethyl-pentanamide]: the inhibition of growth at 200 ppm (in [1]; in the series on Fusarium culmorum [2]; in series [4]; with Gaeumannomyces graminis; in series [5]) was no less than 80% throughout. The pest or weed control at 200 ppm with Fusarium culmorum [3] was no less than 80%.
What is called melting point is the temperature, or range, at which the solid turns liquid. Compound `Cc1nc2c(F)cccc2cc1NC(=O)[C@](C)(Cc1ccccc1)CC(F)(F)F` [Compound F-11, (2R)-2-benzyl-4,4,4-trifluoro-N-(8-fluoro-2-methyl-3-quinolyl)-2-methyl-butanamide] came in with a melting point of 137 to 139 °C. In addition, the inhibition of growth at 200 ppm in [1] was no less than 80%. For the same compound, the inhibition of growth at 200 ppm in the series with Fusarium culmorum [2] was no less than 80%. Further, in the series on Fusarium culmorum [3], the pest or weed control at 200 ppm is no less than 80%. In addition, the inhibition of growth at 200 ppm in [4] was no less than 80%. Moreover, the inhibition of growth at 200 ppm in series [6] is no less than 80%. Moreover, the pest or weed control at 200 ppm in [7] is no less than 80%. Moreover, in the series on Sclerotinia sclerotiorum, the inhibition of growth at 20 ppm is no less than 80%.
As to `C=C(C)C[C@](C)(Cc1ccccc1)C(=O)Nc1cnc2c(F)cccc2c1C` [Compound F-6, (2R)-2-benzyl-N-(8-fluoro-4-methyl-3-quinolyl)-2,4-dimethyl-pent-4-enamide], the inhibition of growth at 200 ppm (in series [1]; in the series with Fusarium culmorum [2]; in [4]; in series [5]; in [6]) was no less than 80% throughout. The pest or weed control at 200 ppm (with Fusarium culmorum [3]; in [7]) was no less than 80% each time. The inhibition of growth at 20 ppm with Sclerotinia sclerotiorum is no less than 80%.
`Cc1nc2c(Cl)cccc2cc1NC(=O)C(C)(Cc1ccccc1)CC(C)C` (centres unmarked) [Compound E-13, 2-benzyl-N-(8-chloro-2-methyl-3-quinolyl)-2,4-dimethyl-pentanamide] yielded a melting point of 99 to 100 °C. The inhibition of growth at 200 ppm in [1] is no less than 80%. Also, the inhibition of growth at 200 ppm with Fusarium culmorum [2] is no less than 80%. The inhibition of growth at 200 ppm in series [4] was no less than 80%. Besides, the inhibition of growth at 200 ppm in series [5] was no less than 80%. In addition, the inhibition of growth at 200 ppm in [6] is no less than 80%. Also, the pest or weed control at 200 ppm in series [7] is no less than 80%. Also, in the series with Sclerotinia sclerotiorum, the inhibition of growth at 20 ppm was no less than 80%.
`CC(Cc1ccccc1)(CC(F)(F)F)C(=O)Nc1cnc2c(F)cccc2c1` (centres unmarked) [Compound E-80, 2-benzyl-4,4,4-trifluoro-N-(8-fluoro-3-quinolyl)-2-methyl-butanamide]: the inhibition of growth at 200 ppm (in [1]; with Fusarium culmorum [2]; in series [4]; in series [5]; in [6]) was no less than 80% each time. The pest or weed control at 200 ppm (with Fusarium culmorum [3]; in [7]) was no less than 80% throughout. Also, the inhibition of growth at 20 ppm in the series on Sclerotinia sclerotiorum is no less than 80%.
`CC(Cc1ccccc1)(CC1CC1(F)F)C(=O)Nc1cnc2c(F)cccc2c1` (centres unmarked) [Compound E-72, 2-benzyl-3-(2,2-difluorocyclopropyl)-N-(8-fluoro-3-quinolyl)-2-methyl-propanamide]: the inhibition of growth at 200 ppm (in [1]; in the series on Fusarium culmorum [2]; in series [4]; in the series on Gaeumannomyces graminis; in [5]; in series [6]) was no less than 80% throughout.
Take `Cc1nc2c(Cl)cccc2cc1NC(=O)C(C)(Cc1ccccc1)CC(F)(F)F` (centres unmarked) [Compound E-17, 2-benzyl-N-(8-chloro-2-methyl-3-quinolyl)-4,4,4-trifluoro-2-methyl-butanamide]: the melting point lay within 47 to 50 °C. Further, in series [1], the inhibition of growth at 200 ppm was no less than 80%. Also, in the series with Fusarium culmorum [2], the inhibition of growth at 200 ppm was no less than 80%. For the same compound, in series [4], the inhibition of growth at 200 ppm is no less than 80%. In [5], the inhibition of growth at 200 ppm is no less than 80%. In addition, in series [6], the inhibition of growth at 200 ppm was no less than 80%. For the same compound, the pest or weed control at 200 ppm in series [7] is no less than 80%. In addition, in the series on Sclerotinia sclerotiorum, the inhibition of growth at 20 ppm is no less than 80%.
As for `C=C(C)C[C@@](C)(Cc1ccccc1)C(=O)Nc1cc2cccc(F)c2nc1C` [Compound F-1, (2S)-2-benzyl-N-(8-fluoro-2-methyl-3-quinolyl)-2,4-dimethyl-pent-4-enamide], the inhibition of growth at 200 ppm (in series [1]; in the series with Fusarium culmorum [2]; in series [4]; in series [6]) was no less than 80% throughout. The pest or weed control at 200 ppm (with Fusarium culmorum [3]; in series [7]) was no less than 80% each time. Further, the inhibition of growth at 20 ppm in the series on Sclerotinia sclerotiorum was no less than 80%.
The compound `C=C(Cl)CC(C)(Cc1ccccc1)C(=O)Nc1cnc2c(F)cccc2c1C` (centres unmarked) [Compound E-20, 2-benzyl-4-chloro-N-(8-fluoro-4-methyl-3-quinolyl)-2-methyl-pent-4-enamide] yielded a melting point of 124 to 126 °C. The inhibition of growth at 200 ppm in series [1] was no less than 80%. Moreover, the inhibition of growth at 200 ppm in the series with Fusarium culmorum [2] was no less than 80%. Also, the pest or weed control at 200 ppm in the series on Fusarium culmorum [3] was no less than 80%. In [4], the inhibition of growth at 200 ppm was no less than 80%. Further, in [5], the inhibition of growth at 200 ppm is no less than 80%. Moreover, the inhibition of growth at 200 ppm in [6] was no less than 80%. Also, in [7], the pest or weed control at 200 ppm is no less than 80%. Moreover, the inhibition of growth at 20 ppm in the series with Sclerotinia sclerotiorum was no less than 80%.
The compound `CC1(C[C@](C)(Cc2ccccc2)C(=O)Nc2cnc3c(F)cccc3c2)CC1` [Compound F-9, (2R)-2-benzyl-N-(8-fluoro-3-quinolyl)-2-methyl-3-(1-methylcyclopropyl) propanamide] gave a melting point of 62 to 64 °C. Moreover, the inhibition of growth at 200 ppm in series [1] is no less than 80%. Moreover, the inhibition of growth at 200 ppm with Fusarium culmorum [2] is no less than 80%. Moreover, the pest or weed control at 200 ppm in the series with Fusarium culmorum [3] was no less than 80%. Besides, the inhibition of growth at 200 ppm in series [4] was no less than 80%. In addition, the inhibition of growth at 200 ppm in series [5] is no less than 80%. Also, the inhibition of growth at 200 ppm in series [6] was no less than 80%. In addition, the pest or weed control at 200 ppm in series [7] was no less than 80%. Besides, the inhibition of growth at 20 ppm in the series on Sclerotinia sclerotiorum is no less than 80%.
`Cc1c(NC(=O)C(Cc2ccccc2)CC(F)(F)F)cnc2c(F)cccc12` (centres unmarked) [Compound E-45, 2-benzyl-4,4,4-trifluoro-N-(8-fluoro-4-methyl-3-quinolyl)butanamide] registered a melting point of 165 to 167 °C. In addition, the inhibition of growth at 200 ppm in [1] is no less than 80%. The inhibition of growth at 200 ppm with Fusarium culmorum [2] is no less than 80%. Moreover, in the series with Fusarium culmorum [3], the pest or weed control at 200 ppm was no less than 80%. For the same compound, in series [4], the inhibition of growth at 200 ppm was no less than 80%. Besides, in [6], the inhibition of growth at 200 ppm was no less than 80%. Besides, in series [7], the pest or weed control at 200 ppm is no less than 80%. Further, the inhibition of growth at 20 ppm with Sclerotinia sclerotiorum is no less than 80%.
`C=C(Cl)CC(C)(Cc1ccccc1)C(=O)Nc1cc2cccc(F)c2nc1C` (centres unmarked) [Compound E-21, 2-benzyl-4-chloro-N-(8-fluoro-2-methyl-3-quinolyl)-2-methyl-pent-4-enamide] gave a melting point of 121 to 123 °C. Also, the inhibition of growth at 200 ppm in series [1] is no less than 80%. In addition, the inhibition of growth at 200 ppm in the series with Fusarium culmorum [2] is no less than 80%. The pest or weed control at 200 ppm in the series on Fusarium culmorum [3] is no less than 80%. In addition, the inhibition of growth at 200 ppm in [4] was no less than 80%. In [6], the inhibition of growth at 200 ppm was no less than 80%. The pest or weed control at 200 ppm in series [7] is no less than 80%. For the same compound, the inhibition of growth at 20 ppm with Sclerotinia sclerotiorum is no less than 80%.
Consider `CC(Cc1ccccc1)(CC1CC1(Cl)Cl)C(=O)Nc1cnc2c(F)cccc2c1` (centres unmarked) [Compound E-75, 2-benzyl-3-(2,2-dichlorocyclopropyl)-N-(8-fluoro-3-quinolyl)-2-methyl-propanamide], for which the inhibition of growth at 200 ppm (in [1]; with Fusarium culmorum [2]; in [4]; in the series with Gaeumannomyces graminis; in series [6]) was no less than 80% each time.
`Cc1c(NC(=O)C(C)(Cc2ccccc2)CC(F)(F)F)cnc2c(F)cccc12` (centres unmarked) [Compound E-50, 2-benzyl-4,4,4-trifluoro-N-(8-fluoro-4-methyl-3-quinolyl)-2-methyl-butanamide]: the melting point was 106 to 109 °C. In series [1], the inhibition of growth at 200 ppm is no less than 80%. The inhibition of growth at 200 ppm in the series on Fusarium culmorum [2] is no less than 80%. In addition, the pest or weed control at 200 ppm with Fusarium culmorum [3] was no less than 80%. For the same compound, the inhibition of growth at 200 ppm in series [4] is no less than 80%. Moreover, in [5], the inhibition of growth at 200 ppm is no less than 80%. Further, the inhibition of growth at 200 ppm in [6] was no less than 80%. Moreover, the pest or weed control at 200 ppm in [7] was no less than 80%. The inhibition of growth at 20 ppm in the series on Sclerotinia sclerotiorum is no less than 80%.
For `Cc1nc2c(F)cccc2cc1NC(=O)[C@@](C)(Cc1ccccc1)CC(F)(F)F` [Compound F-12, (2S)-2-benzyl-4,4,4-trifluoro-N-(8-fluoro-2-methyl-3-quinolyl)-2-methyl-butanamide], the melting point lay within 135 to 136 °C. Further, the inhibition of growth at 200 ppm in [1] is no less than 80%. Further, the inhibition of growth at 200 ppm in the series with Fusarium culmorum [2] was no less than 80%. For the same compound, the pest or weed control at 200 ppm with Fusarium culmorum [3] was no less than 80%. For the same compound, the inhibition of growth at 200 ppm in [4] is no less than 80%. In series [5], the inhibition of growth at 200 ppm is no less than 80%. In addition, the inhibition of growth at 200 ppm in series [6] was no less than 80%. In series [7], the pest or weed control at 200 ppm is no less than 80%. Also, the inhibition of growth at 20 ppm in the series with Sclerotinia sclerotiorum was no less than 80%.

(Values after patent US10952436B2, “Microbiocidal quinoline (thio)carboxamide derivatives” (SYNGENTA PARTICIPATIONS AG, priority 2017, dated 2021).)
